Inhibition and IC50 data for one molecule are collected here from patent publication US12622915B2, “Methods of treating PDE IV-mediated diseases or conditions” (Vanda Pharmaceuticals Inc., priority 2020, dated 2026).

Assay type in all cases: biochemical
Experiment [1] has as its target T1, Phosphodiesterase PDE2A (Homo sapiens, UniProt O00408).
T1 construct: host or cells: insect Sf9 cells
The experiment is described as follows: Phosphodiesterase PDE2A enzyme assay. The note with it: N=2, Example 3. The text has this:
(§1) Reference standards are run as an integral part of each assay to ensure the validity of the results obtained. Reference Compounds: • Phosphodiesterase PDE10A2 Papaverine • Phosphodiesterase PDE11A4 Dipyridamole • Phosphodiesterase PDE1A MMPX • Phosphodiesterase PDE2A EHNA • Phosphodiesterase PDE3A Cilostamide • Phosphodiesterase PDE4A1A Rolipram • Phosphodiesterase PDE4B1 Rolipram • Phosphodiesterase PDE5A Zaprinast • Phosphodiesterase PDE6 Zaprinast • Phosphodiesterase PDE7A IBMX • Phosphodiesterase PDE7B IBMX • Phosphodiesterase PDE8A1 Dipyridamole • Phosphodiesterase PDE9A2 Zaprinast
(§2) Phosphodiesterase PDE4A1A; Phosphodiesterase PDE4B1; Phosphodiesterase PDE10A2; Phosphodiesterase PDE11A4; Phosphodiesterase PDE2A; Phosphodiesterase PDE3A; Phosphodiesterase PDE7A; Phosphodiesterase PDE7B; and Phosphodiesterase PDE8A1: • Source: Human recombinant insect Sf9 cells • Substrate: 0.10 μM FAM-cAMP • Vehicle: 1.00% DMSO • Significance Crit.: ≥50% of max stimulation or inhibition • Incubation Buffer: 10 mM Tris-HCl, pH 7.2, 10 mM MgCl2, 0.05% NaN3, 0.1% phosphate-free BSA • Quantitation Method: Quantitation of Fluorescein-AMP-IMAP • Pre-Incub. Time/Temp: 15 minutes @25° C. • Incubation Time/Temp: 30 minutes @25° C.
(§3) IC50 values are determined by a non-linear, least squares regression analysis using MathIQ™ (ID Business Solutions Ltd., UK). […]

The target in experiment [2] is T2, Phosphodiesterase PDE3A (Homo sapiens, UniProt Q14432).
T2 construct: host or cells: insect Sf9 cells
The experiment is described as follows: Phosphodiesterase PDE3A enzyme assay. The note with it: N=2, Example 3.
Description: as §1, §2, §3

Experiment [3] has as its target T3, Phosphodiesterase PDE4B1 (Homo sapiens, UniProt Q07343).
T3 construct: host or cells: insect Sf9 cells
The experiment is described as follows: Phosphodiesterase PDE4B1 enzyme assay.
Description: as §1
PDE4 assays are performed using methods adapted from the literature. See Richter W, et al. (2001) Identification of inhibitor binding sites of the cAMP-specific phosphodiesterase 4. Cell Signal. 13(4): 287-297; Wang H, et al. (2005) Multiple elements jointly determine inhibitor selectivity of cyclic nucleotide phosphodiesterases 4 and 7. J Biol Chem. 280(35): 30949-30955.
as §2
(§4) IC50 values are determined by a non-linear, least squares regression analysis using MathIQ™ (ID Business Solutions Ltd., UK). Where inhibition constants (Ki) are presented, the Ki values are calculated using the equation of Cheng and Prusoff (Cheng, Y., Prusoff, W. H., Biochem. Pharmacol. 22:3099-3108, 1973) using the observed IC50 of the tested compound, the concentration of radioligand employed in the assay, and the historical values for the KD of the ligand. Where presented, the Hill coefficient (nH), defining the slope of the competitive binding curve, is calculated using MathIQ™. […] Where IC50, Ki, and/or nH data are presented without Standard Error of the Mean (SEM), data are insufficient to be quantitative, and the values presented (Ki, IC50, nH) are interpreted with caution.
Reference standards are run as an integral part of each assay to ensure the validity of the results obtained. Rolipram is used for the PDE4 assays.
Phosphodiesterase PDE4B1: • Source: Human recombinant insect Sf9 cells • Substrate: 0.10 μM FAM-cAMP • Vehicle: 1.00% DMSO • Significance Crit.: ≥50% of max stimulation or inhibition • Incubation Buffer: 10 mM Tris-HCl, pH 7.2, 10 mM MgCl2, 0.05% NaN3, 0.1% phosphate-free BSA • Quantitation Method: Quantitation of Fluorescein-AMP-IMAP • Pre-Incub. Time/Temp: 15 minutes @25° C. • Incubation Time/Temp: 30 minutes @25° C.
as §4, with “W.H.,” for “W. H.,”

The target in experiment [4] is T4, Phosphodiesterase PDE9A2 (Homo sapiens, UniProt O76083).
T4 construct: host or cells: insect Sf9 cells
The experiment is described as follows: Phosphodiesterase PDE9A2 enzyme assay. Particulars: N=2, Example 3.
Description: as §1
Phosphodiesterase PDE1A; Phosphodiesterase PDE5A; and Phosphodiesterase PDE9A2: • Source: Human recombinant insect Sf9 cells • Substrate: 0.10 μM […] • Vehicle: 1.00% DMSO • Significance Crit.: ≥50% of max stimulation or inhibition • Incubation Buffer: 10 mM Tris-HCl, pH 7.2, 10 mM MgCl2, 0.05% NaN3, 0.1% phosphate-free BSA • Quantitation Method: Quantitation of Fluorescein-GMP-IMAP • Pre-Incub. Time/Temp: 15 minutes @25° C. • Incubation Time/Temp: 30 minutes @25° C.
IC50 values are determined by a non-linear, least squares regression analysis using MathIQ™ (ID Business Solutions Ltd., UK). […] Where presented, the Hill coefficient (nH), defining the slope of the competitive binding curve, is calculated using MathIQ™. […]

For experiment [5], the target named is T5, Phosphodiesterase PDE10A2 (Homo sapiens, UniProt Q9Y233).
T5 construct: host or cells: insect Sf9 cells
Briefly: Phosphodiesterase PDE10A2 enzyme assay. The note with it: N=2, Example 3.
Description: as §1, §2, §3

The structures appear in SMILES notation.

T3 sequence (Q07343 whole entry): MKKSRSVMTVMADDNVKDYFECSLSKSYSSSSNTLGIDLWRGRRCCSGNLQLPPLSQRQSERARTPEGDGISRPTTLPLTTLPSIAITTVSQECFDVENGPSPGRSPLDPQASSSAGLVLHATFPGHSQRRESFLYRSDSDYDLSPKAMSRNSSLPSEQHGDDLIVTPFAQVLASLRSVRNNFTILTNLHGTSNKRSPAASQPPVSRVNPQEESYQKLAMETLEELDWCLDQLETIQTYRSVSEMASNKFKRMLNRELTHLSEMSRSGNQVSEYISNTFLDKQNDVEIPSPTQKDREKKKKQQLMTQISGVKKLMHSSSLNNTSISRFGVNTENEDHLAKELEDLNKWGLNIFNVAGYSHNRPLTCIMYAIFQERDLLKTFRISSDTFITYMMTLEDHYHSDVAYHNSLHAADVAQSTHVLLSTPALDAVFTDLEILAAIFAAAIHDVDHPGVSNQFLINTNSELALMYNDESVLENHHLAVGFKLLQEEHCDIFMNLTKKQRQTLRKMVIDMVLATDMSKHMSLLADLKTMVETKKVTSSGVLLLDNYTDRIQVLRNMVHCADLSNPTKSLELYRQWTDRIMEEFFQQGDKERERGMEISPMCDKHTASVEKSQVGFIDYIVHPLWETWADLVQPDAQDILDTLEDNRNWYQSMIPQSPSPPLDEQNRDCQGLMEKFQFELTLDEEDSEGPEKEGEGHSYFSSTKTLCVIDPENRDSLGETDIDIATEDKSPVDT
T5 sequence (Q9Y233 267-1055): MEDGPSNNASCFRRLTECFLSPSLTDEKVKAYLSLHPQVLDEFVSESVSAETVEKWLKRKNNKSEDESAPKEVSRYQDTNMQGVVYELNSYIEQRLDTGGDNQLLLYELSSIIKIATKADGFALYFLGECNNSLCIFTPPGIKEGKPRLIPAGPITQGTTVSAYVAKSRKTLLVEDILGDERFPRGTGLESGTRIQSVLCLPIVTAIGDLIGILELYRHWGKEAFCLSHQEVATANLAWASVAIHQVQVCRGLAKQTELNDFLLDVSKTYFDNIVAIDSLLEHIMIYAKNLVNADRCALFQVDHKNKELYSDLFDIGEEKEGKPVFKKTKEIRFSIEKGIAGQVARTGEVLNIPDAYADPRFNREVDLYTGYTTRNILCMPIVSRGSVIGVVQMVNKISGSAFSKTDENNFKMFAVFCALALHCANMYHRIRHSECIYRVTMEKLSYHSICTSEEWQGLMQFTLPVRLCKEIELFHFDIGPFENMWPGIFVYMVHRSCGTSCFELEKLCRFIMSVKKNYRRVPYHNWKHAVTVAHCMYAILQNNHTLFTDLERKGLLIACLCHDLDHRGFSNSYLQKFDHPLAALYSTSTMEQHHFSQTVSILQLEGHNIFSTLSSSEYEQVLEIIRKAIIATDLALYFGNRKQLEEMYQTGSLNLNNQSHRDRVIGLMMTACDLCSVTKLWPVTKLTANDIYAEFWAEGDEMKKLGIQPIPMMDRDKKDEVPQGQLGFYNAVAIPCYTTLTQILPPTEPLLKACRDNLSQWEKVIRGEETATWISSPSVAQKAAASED
T2 sequence (Q14432 whole entry): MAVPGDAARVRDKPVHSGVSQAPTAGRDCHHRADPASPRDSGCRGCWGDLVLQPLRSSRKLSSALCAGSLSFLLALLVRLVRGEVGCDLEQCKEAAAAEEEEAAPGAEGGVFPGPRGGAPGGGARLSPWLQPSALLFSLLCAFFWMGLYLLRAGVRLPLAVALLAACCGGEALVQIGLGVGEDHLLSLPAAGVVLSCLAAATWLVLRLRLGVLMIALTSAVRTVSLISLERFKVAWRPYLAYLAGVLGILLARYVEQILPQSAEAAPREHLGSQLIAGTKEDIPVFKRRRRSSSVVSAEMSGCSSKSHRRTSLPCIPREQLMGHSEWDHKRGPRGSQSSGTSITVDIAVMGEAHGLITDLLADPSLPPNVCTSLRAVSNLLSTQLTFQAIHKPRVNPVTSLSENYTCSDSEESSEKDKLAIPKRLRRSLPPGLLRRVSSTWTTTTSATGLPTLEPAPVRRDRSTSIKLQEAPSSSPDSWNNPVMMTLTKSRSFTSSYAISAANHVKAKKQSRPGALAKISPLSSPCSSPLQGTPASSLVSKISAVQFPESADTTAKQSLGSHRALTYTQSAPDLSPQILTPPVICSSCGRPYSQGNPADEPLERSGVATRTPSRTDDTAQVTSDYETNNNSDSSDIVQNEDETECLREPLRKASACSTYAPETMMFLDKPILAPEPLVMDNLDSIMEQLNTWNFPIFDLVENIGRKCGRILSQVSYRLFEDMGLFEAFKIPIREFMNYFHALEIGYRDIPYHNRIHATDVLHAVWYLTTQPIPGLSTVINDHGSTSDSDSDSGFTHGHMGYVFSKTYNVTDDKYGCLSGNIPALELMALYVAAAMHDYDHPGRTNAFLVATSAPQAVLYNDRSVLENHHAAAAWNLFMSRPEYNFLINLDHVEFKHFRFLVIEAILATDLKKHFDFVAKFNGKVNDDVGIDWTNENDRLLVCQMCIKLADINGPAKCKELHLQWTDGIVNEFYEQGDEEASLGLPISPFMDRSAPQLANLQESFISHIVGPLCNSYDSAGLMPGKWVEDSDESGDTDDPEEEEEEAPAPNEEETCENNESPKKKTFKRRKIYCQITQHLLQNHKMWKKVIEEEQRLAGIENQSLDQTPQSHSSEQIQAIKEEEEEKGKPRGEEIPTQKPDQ
T1 sequence (O00408 whole entry): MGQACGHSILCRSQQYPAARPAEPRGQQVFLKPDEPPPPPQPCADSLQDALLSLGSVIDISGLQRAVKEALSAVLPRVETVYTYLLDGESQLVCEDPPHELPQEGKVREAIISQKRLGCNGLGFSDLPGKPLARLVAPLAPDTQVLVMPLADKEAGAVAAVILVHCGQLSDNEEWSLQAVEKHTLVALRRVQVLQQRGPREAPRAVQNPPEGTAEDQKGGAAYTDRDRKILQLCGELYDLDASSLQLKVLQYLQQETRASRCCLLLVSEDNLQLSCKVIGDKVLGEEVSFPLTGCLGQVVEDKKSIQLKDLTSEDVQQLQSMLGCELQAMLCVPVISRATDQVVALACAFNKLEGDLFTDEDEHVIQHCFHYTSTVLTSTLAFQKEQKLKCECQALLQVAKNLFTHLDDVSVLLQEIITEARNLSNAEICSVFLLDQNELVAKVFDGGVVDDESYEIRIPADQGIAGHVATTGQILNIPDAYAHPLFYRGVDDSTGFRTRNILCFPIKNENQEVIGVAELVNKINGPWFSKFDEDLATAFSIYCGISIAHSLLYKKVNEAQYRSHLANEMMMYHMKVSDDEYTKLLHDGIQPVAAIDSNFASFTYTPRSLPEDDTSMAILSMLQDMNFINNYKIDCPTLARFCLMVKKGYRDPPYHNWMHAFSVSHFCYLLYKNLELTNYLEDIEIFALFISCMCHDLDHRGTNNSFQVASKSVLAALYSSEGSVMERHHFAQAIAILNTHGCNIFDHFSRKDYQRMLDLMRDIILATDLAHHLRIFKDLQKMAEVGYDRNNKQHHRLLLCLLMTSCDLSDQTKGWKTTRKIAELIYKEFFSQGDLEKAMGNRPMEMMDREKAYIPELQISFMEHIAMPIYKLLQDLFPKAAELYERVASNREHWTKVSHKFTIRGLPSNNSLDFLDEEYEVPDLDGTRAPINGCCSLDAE
T4 sequence (O76083 1-533 isoform O76083-2): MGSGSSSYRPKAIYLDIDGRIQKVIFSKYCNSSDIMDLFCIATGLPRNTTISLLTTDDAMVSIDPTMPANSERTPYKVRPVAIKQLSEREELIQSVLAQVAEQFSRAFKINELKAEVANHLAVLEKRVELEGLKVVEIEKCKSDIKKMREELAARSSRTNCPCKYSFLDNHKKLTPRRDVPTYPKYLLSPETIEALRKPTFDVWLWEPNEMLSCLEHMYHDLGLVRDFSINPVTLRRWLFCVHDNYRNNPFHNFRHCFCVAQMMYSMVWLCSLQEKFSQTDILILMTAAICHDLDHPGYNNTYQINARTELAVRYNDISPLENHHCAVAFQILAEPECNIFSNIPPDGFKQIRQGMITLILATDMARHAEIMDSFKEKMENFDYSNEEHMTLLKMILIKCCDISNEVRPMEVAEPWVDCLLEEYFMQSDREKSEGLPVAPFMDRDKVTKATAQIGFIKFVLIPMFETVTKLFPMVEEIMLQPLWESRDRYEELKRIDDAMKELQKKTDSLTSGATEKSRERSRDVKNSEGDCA

Consider `CNc1nc(Nc2ccccc2)nc(OCC(F)(F)C(F)F)n1` [compound of Formula (I), N^2-methyl-N^4-phenyl-6-(2,2,3,3-tetrafluoropropoxy)-1,3,5-triazine-2,4-diamine], for which the inhibition at 10 µM in experiment [1] was 9%; in experiment [2], 6%; in experiment [3] (N=2, Example 3), 96%; in experiment [3] (N=2, Example 4) it was 94%; in experiment [4] it was -2%; in experiment [5] it was 11%. For the same molecule, the inhibition at 0.01 µM in experiment [3] (10 nM, N=2, Example 4) came out at 17%. Moreover, the inhibition at 0.03 µM in experiment [3] (0.03 μM, N=2, Example 4) amounted to 34%. Further, in experiment [3] (0.1 μM, N=2, Example 4), the inhibition at 0.1 µM was 49%. For the same molecule, in experiment [3] (0.3 μM, N=2, Example 4), the inhibition at 0.3 µM worked out at 70%. Moreover, in experiment [3] (1 μM, N=2, Example 4), the inhibition at 1 µM is 83%. Also, in experiment [3] (3 μM, N=2, Example 4), the inhibition at 3 µM was found to be 91%. In addition, the IC50 in experiment [3] (Example 4) came to 94 nM.
